Like-named read-outs stand apart in the source and are kept apart here. One block for each molecule: values may come before it.
Tests used:
[1] = Example 5 CAP study, safety
S. aureus [2] = test: Example 5 CAP study, outcome by baseline pathogen; assay type: in vivo
Text: (§1) Per-pathogen clinical cure rate and favorable microbiological outcome rate at TOC in the mMITTE and ME Populations;

E. coli = test: Example 5 CAP study, outcome by baseline pathogen; assay type: in vivo
Text: as §1

H. parainfluenzae [3] = test: Example 5 CAP study, outcome by baseline pathogen; assay type: in vivo
Text: as §1

H. influenzae [4] = test: Example 5 CAP study, outcome by baseline pathogen; assay type: in vivo
Text: as §1

S. pneumoniae [5] = test: Example 5 CAP study, outcome by baseline pathogen; assay type: in vivo
Text: as §1

MDRSP [6] = test: Example 5 CAP study, outcome by baseline pathogen; assay type: in vivo, S. pneumoniae
Text: as §1

[7] = system: community-acquired pneumonia (CAP); test: Example 5 Phase 3 study, ceftaroline vs ceftriaxone with adjunctive clarithromycin in CAP, efficacy; assay type: in vivo, human
Text: (§2) The secondary objective of the study was to evaluate the following: the clinical response at end-of-therapy (EOT); the microbiological favorable outcome rate at TOC; the overall (clinical and radiographic) success rate at TOC; the clinical and microbiological response by pathogen at TOC; clinical relapse at late follow-up (LFU); microbiological reinfection/recurrence at LFU; and safety.
The primary efficacy outcome measures were the per-subject clinical cure rate at TOC in the CE and MITTE Populations. Subjects were considered clinically cured at TOC if they had total resolution of all signs and symptoms of the baseline infection, or improvement of the infection such that no further antimicrobial therapy was necessary.
(§3) Non-inferiority was concluded if the lower limit of the 95% CI was higher than −10%.

Staphylococcus aureus = test: Integrated Phase 3 CABP studies, clinical cure by infecting pathogen; assay type: in vivo; settings: ME patients
Procedure: (§4) In both treatment groups of CABP Study 1, two doses of oral clarithromycin (500 mg q12 h), were administered as adjunctive therapy starting on Study Day 1. No adjunctive macrolide therapy was used in CABP Study 2. Patients with new or progressive pulmonary infiltrate(s) on chest radiography and clinical signs and symptoms consistent with CABP with the need for hospitalization and IV therapy were enrolled in the studies. Treatment duration was 5 to 7 days. A switch to oral therapy was not allowed. The Modified Intent-to-Treat Efficacy (MITTE) population, included all patients who received any amount of study drug according to their randomized, treatment group and were in PORT (Pneumonia Outcomes Research Team) Risk Class III or IV.
(§5) The primary efficacy endpoint was the clinical response at the Test of Cure (TOC) visit in the co-primary Ce and MITTE populations (Table 4).

Haemophilus influenzae = test: as above; assay type: in vivo; settings: ME patients
Procedure: as §4, §5

Escherichia coli = test: as above; assay type: in vivo; settings: ME patients
Procedure: as §4, §5

Streptococcus pneumoniae = test: as above; assay type: in vivo; settings: ME patients
Procedure: as §4, §5

Klebsiella pneumoniae = test: as above; assay type: in vivo; settings: ME patients
Procedure: as §4, §5

S. aureus [8] = test: Example 4 CAP study, outcome by baseline pathogen; assay type: in vivo
Text: as §1

K. pneumoniae = test: Example 4 CAP study, outcome by baseline pathogen; assay type: in vivo
Text: as §1

H. parainfluenzae [9] = test: Example 4 CAP study, outcome by baseline pathogen; assay type: in vivo
Text: as §1

H. influenzae [10] = test: Example 4 CAP study, outcome by baseline pathogen; assay type: in vivo
Text: as §1

S. pneumoniae [11] = test: Example 4 CAP study, outcome by baseline pathogen; assay type: in vivo
Text: as §1

[12] = human, in vivo
[13] = system: MDRSP (multidrug-resistant); assay type: in vivo, Streptococcus pneumoniae; settings: CABP, ME patients
Procedure: as §4, §5

[14] = Example 4 CAP study, safety
[15] = system: Community-Acquired Bacterial Pneumonia (CABP); test: Two Phase 3 studies in CABP, clinical cure at TOC (single and integrated/combined); assay type: in vivo, human; settings: for Combined clinical cure rate: combined data of the two CAP studies, TOC
Procedure: as §4, §5

[16] = system: MSSA (methicillin-susceptible); test: Integrated Phase 3 CABP studies, clinical cure by infecting pathogen; assay type: in vivo, Staphylococcus aureus; settings: ME patients
Procedure: as §4, §5

[17] = system: community-acquired pneumonia (CAP); test: Example 4 Phase 3 study, ceftaroline vs ceftriaxone in CAP, efficacy; assay type: in vivo, human
Text: as §2, with “objectives” for “objective”, “were” for “was”, “following:” for “following: the”
The following criteria were used for evaluation: The primary efficacy outcome measures were the pet-subject clinical cure rate at test-of-cure (TOC) in the CE and MITTE Populations Subjects were considered clinically cured at TOC if they had total resolution of all signs and symptoms of the baseline infection, or improvement of the infection such that no further antimicrobial therapy was necessary.
as §3

MDRSP [18] = test: Example 4 CAP study, outcome by baseline pathogen; assay type: in vivo, S. pneumoniae
Text: as §1

[19] = human, in vivo; remark: listed apart in the source
[20] = system: CYP1A2, CYP2B6, CYP2C8, CYP2C9, CYP2CI9, or CYP3A4/5; test: CYP induction in human hepatocytes; assay type: in vitro ADME

Structure (SMILES): CO/N=C(\C(=O)N[C@@H]1C(=O)N2C(C(=O)O)=C(CSc3nc(=O)c(=O)[nH]n3C)CS[C@H]12)c1csc(N)n1 [Ceftriaxone, ceftriaxone, reference compound]
hemolytic anemia [1]: No evidence of hemolytic anemia | percentage of deaths [1]: 2.6% | Favorable Microbiological Outcome at TOC by Baseline Pathogen (S. aureus [2]; Example 5, ME): 8/12 (66.7) | Clinical Cure Rate at the TOC Visit by Baseline Pathogen (S. aureus [2]; Example 5, ME Population): 7/12 (58.3) | Favorable Microbiological Outcome at TOC by Baseline Pathogen (E. coli; Example 5, ME): 6/6 (100.0) | Clinical Cure Rate at the TOC Visit by Baseline Pathogen (E. coli; Example 5, ME Population): 5/6 (83.3) | Favorable Microbiological Outcome at TOC by Baseline Pathogen (H. parainfluenzae [3]; Example 5, ME): 9/10 (90.0) | Clinical Cure Rate at the TOC Visit by Baseline Pathogen (H. parainfluenzae [3]; Example 5, ME Population): 9/10 (90.0) | Favorable Microbiological Outcome at TOC by Baseline Pathogen (H. influenzae [4]; Example 5, ME): 6/8 (75.0) | Clinical Cure Rate at the TOC Visit by Baseline Pathogen (H. influenzae [4]; Example 5, ME Population): 6/8 (75.0) | Favorable Microbiological Outcome at TOC by Baseline Pathogen (S. pneumoniae [5]; Example 5, ME): 18/27 (66.7) | Clinical Cure Rate at the TOC Visit by Baseline Pathogen (S. pneumoniae [5]; Example 5, ME Population): 18/27 (66.7) | Favorable Microbiological Outcome at TOC by Baseline Pathogen (MDRSP [6]; Example 5, ME): 0 | Clinical Cure Rate at the TOC Visit by Baseline Pathogen (MDRSP [6]; Example 5, ME Population): 0 | Clinical Success at the TOC Visit ([7]; Example 5, CE population): 183 (78.2) % | Favorable Microbiological Outcome at the TOC Visit ([7]; Example 5, ME population): 56 (78.9) % | Clinical Success at the TOC Visit ([7]; Example 5, MITTE population): 233 (77.7) % | Favorable Microbiological Outcome at the TOC Visit ([7]; Example 5, mMITTE population): 63 (78.8) % | Clinical cure rate by infecting pathogen (Staphylococcus aureus): 15/27 (55.6%) | Clinical cure rate by infecting pathogen (Haemophilus influenzae): 17/20 (85.0%) | Clinical cure rate by infecting pathogen (Escherichia coli): 9/12 (75.0%) | Clinical cure rate by infecting pathogen (Streptococcus pneumoniae): 41/59 (69.5%) | Clinical cure rate by infecting pathogen (Klebsiella pneumoniae): 10/12 (83.3%) | Favorable Microbiological Outcome at TOC by Baseline Pathogen (S. aureus [8]; Example 4, ME): 11/15 (73.3) | Clinical Cure Rate at the TOC Visit by Baseline Pathogen (S. aureus [8]; Example 4, ME Population): 8/15 (53.3) | Favorable Microbiological Outcome at TOC by Baseline Pathogen (K. pneumoniae; Example 4, ME): 7/8 (87.5) | Clinical Cure Rate at the TOC Visit by Baseline Pathogen (K. pneumoniae; Example 4, ME Population): 7/8 (87.5) | Favorable Microbiological Outcome at TOC by Baseline Pathogen (H. parainfluenzae [9]; Example 4, ME): 7/7 (100.0) | Clinical Cure Rate at the TOC Visit by Baseline Pathogen (H. parainfluenzae [9]; Example 4, ME Population): 6/7 (85.7) | Favorable Microbiological Outcome at TOC by Baseline Pathogen (H. influenzae [10]; Example 4, ME): 11/12 (91.7) | Clinical Cure Rate at the TOC Visit by Baseline Pathogen (H. influenzae [10]; Example 4, ME Population): 11/12 (91.7) | Favorable Microbiological Outcome at TOC by Baseline Pathogen (S. pneumoniae [11]; Example 4, ME): 25/32 (78.1) | Clinical Cure Rate at the TOC Visit by Baseline Pathogen (S. pneumoniae [11]; Example 4, ME Population): 23/32 (71.9) | Adverse event: COPD [12]: 5 (1.6) % | Adverse event: Diarrhea [12]: 9 (2.9) % | Adverse event: Head ache [12]: 5 (1.6) % | Adverse event: Hypertension [12]: 8 (2.6) % | Adverse event: Pleural effusion [12]: 7 (2.3) % | Adverse event: Pneumonia [12]: 4 (1.3) % | study-drug-related TEAE: alanine aminotransferase increased [12]: 1.0% | study-drug-related TEAE: blood creatinine phosphokinase increased [12]: 0.7% | study-drug-related TEAE: heartache [12]: 1.0% | subjects with any study-drug-related TEAEs [12]: 13.7% | Clinical cure rate by infecting pathogen [13]: 1/4 (25.0%) | hemolytic anemia [14]: No evidence of hemolytic anemia | incidence of deaths [14]: 2.0% | Clinical cure rate at TOC ([15]; CABP Study 1, CE population): 183/234 (78.2%) | Clinical cure rate at TOC ([15]; CABP Study 1, MITTE population): 233/300 (77.7%) | Clinical cure rate at TOC ([15]; CABP Study 2, CE population): 166/215 (77.2%) | Clinical cure rate at TOC ([15]; CABP Study 2, MITTE population): 206/273 (75.5%) | Clinical cure rate at TOC ([15]; Integrated Studies, CE population, 5 to 7 days of therapy): 349/449 (77.7%) | Clinical cure rate at TOC ([15]; Integrated Studies, MITTE population): 439/573 (76.6%) | Combined clinical cure rate ([15]; CE): 349/449 (77.7) % | Combined clinical cure rate ([15]; ME): 111/147 (75.5) % | Combined clinical cure rate ([15]; MITTE): 439/573 (76.6) % | Combined clinical cure rate ([15]; mMITTE): 126/168 (75.0) % | Clinical cure rate by infecting pathogen [16]: 14/25 (56.0%) | Clinical Success at the TOC Visit ([17]; Example 4, CE population): 166 (77.2) % | Favorable Microbiological Outcome at the TOC Visit ([17]; Example 4, ME population): 63 (82.9) % | Clinical Success at the TOC Visit ([17]; Example 4, MITTE population): 206 (75.5) % | Favorable Microbiological Outcome at TOC by Baseline Pathogen (MDRSP [18]; Example 4, ME): 2/4 (50.0) | Clinical Cure Rate at the TOC Visit by Baseline Pathogen (MDRSP [18]; Example 4, ME Population): 1/4 (25.0) | Adverse event: Constipation [19]: 5 (1.6) % | Adverse event: Hypertension [19]: 8 (2.6) % | TEAEs assessed as drug related by the Investigators [19]: 12.7% | study-drug-related TEAE: headache [19]: 0.0% | study-drug-related TEAE: hepatic enzyme increased [19]: 1.0% | study-drug-related TEAE: sinus bradychardia [19]: 1.0%

induction of CYP isoenzymes [20]: not inducers
Structure (SMILES): CCO/N=C(\C(=O)N[C@H](C(=O)[O-])[C@@H]1NC(C(=O)[O-])=C(Sc2nc(-c3cc[n+](C)cc3)cs2)CS1)c1nsc(N)n1.[H+] [ceftaroline M-1]

From US20180303853A1, “COMPOSITIONS AND METHODS FOR TREATING BACTERIAL INFECTIONS USING CEFTAROLINE” (priority 2017, published 2018)
